Here are results for four compounds from patent US10183918B2, “Oxa-azaspiro compounds having activity against pain” (LABORATORIOS DEL DR. ESTEVE S.A., priority 2015, dated 2019).

The target in one test is sigma-2 (σ2) site (Homo sapiens, UniProt Q5BJF2). To be noted: result in words, background; cited from earlier work.
Another test has as its target T1, human σ1 receptor (Homo sapiens, UniProt Q99720).
T1 construct: expressed in transfected cells; host or cells: HEK-293 (membranes)
In words: Human σ1 receptor radioligand assay. It counts as binding. To be noted: transfected HEK-293 membranes, 5 nM [3H](+)-pentazocine as radioligand. The procedure: Human σ1 Receptor Radioligand Assay
To investigate binding properties of test compounds to human σ1 receptor, transfected HEK-293 membranes and [^3H](+)-pentazocine (Perkin Elmer, NET-1056), as the radioligand, were used. The assay was carried out with 7 μg of membrane suspension, 5 nM of [^3H](+)-pentazocine in either absence or presence of either buffer or 10 μM Haloperidol for total and non-specific binding, respectively. Binding buffer contained Tris-HCl 50 mM at pH 8. Plates were incubated at 37° C. for 120 minutes. After the incubation period, the reaction mix was then transferred to Multiscreen HTS, FC plates (Millipore), filtered and plates were washed 3 times with ice-cold 10 mM Tris-HCL (pH7.4). Filters were dried and counted at approximately 40% efficiency in a MicroBeta scintillation counter (Perkin-Elmer) using EcoScint liquid scintillation cocktail

T1 sequence (Q99720 whole entry): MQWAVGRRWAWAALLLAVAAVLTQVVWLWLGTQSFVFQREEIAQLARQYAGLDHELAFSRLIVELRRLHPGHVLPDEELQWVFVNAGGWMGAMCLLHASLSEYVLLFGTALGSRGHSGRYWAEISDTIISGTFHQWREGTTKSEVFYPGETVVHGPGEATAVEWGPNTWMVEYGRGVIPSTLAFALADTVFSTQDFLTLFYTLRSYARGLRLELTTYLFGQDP
Chain of sigma-2 (σ2) site (Q5BJF2 whole entry): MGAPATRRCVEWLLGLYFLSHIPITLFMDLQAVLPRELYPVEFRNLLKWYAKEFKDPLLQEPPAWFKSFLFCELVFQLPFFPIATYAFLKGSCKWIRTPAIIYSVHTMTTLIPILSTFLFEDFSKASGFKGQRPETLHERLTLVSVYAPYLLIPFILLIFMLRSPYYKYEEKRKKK

As for (+)SKF-10047, the “affinity for the sigma-2 (σ2) site” value on sigma-2 (σ2) site is “micromolar affinity”.

Take `CCN1C[C@]2(CC[C@@H](NCc3ccccc3)CC2)OCC1=O` [Example 37, (6r,9r)-9-(benzylamino)-4-ethyl-1-oxa-4-azaspiro[5.5]undecan-3-one]: the Ki on human σ1 receptor is at least 500 nM.

`CCN1C[C@]2(CC[C@@H](N(C)Cc3ccccc3)CC2)OCC1=O` [Example 42, (6r,9r)-9-(benzyl(methyl)amino)-4-ethyl-1-oxa-4-azaspiro[5.5]undecan-3-one] returned a Ki on human σ1 receptor below 100 nM.

Turning to `CCN1C[C@]2(CC[C@H](N(C)CCC(C)C)CC2)OCC1=O` [Example 52, (6s,9s)-4-ethyl-9-(isopentyl(methyl)amino)-1-oxa-4-azaspiro[5.5]undecan-3-one], on human σ1 receptor, the Ki is below 500 nM.
